Several values for one entry are separate records, joined by “and”; a condition that tells them apart may be missing. Equal entries are not always repeated.
T1: sRANKL (Rattus norvegicus, UniProt Q9ESE2, D175N)
T1 construct: (1) sRANKL (rat 159-318 aa); His6-sumo (N, cleaved yes); made in house; host or cells: Escherichia coli BL21 (DE3)
T1 sequence (Q9ESE2 159-318 D175N): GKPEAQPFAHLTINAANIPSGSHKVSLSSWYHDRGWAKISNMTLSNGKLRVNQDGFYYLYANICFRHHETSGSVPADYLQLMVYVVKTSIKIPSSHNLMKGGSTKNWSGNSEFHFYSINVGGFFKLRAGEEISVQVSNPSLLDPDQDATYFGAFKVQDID

T2: recombinant RANK (mouse extracellular RANK fragment, residues 26-210) (mouse, UniProt O35305 26-210)
T2 construct: RANK (TNFRSF11A), mouse, extracellular fragment, residues 26-210, cloned into pET28a between Nde I and Xho I; In the functional rows the RANK that was present is the endogenous receptor on mouse bone marrow cells; also called soluble RANK
T2 sequence (looked up): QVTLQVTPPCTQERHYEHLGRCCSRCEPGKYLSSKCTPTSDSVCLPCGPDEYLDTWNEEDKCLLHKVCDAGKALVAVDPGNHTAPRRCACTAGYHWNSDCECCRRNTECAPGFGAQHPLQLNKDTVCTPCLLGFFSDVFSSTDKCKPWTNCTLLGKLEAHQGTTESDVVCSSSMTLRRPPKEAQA


Assays:
[1] = tested on: sRANKL induced osteoclast differentiation; test: In vitro anti-osteoclastogenesis activity determination (TRAP staining); assay type: cell-based, mouse; parameters: key to inhibition of osteoclastogenesis, dose-response (fig. S2a): % inhibition = 100 − (treated−unstimulated)/(untreated−unstimulated)×100; conditions: for inhibition of osteoclastogenesis, dose-response (fig. S2a): three replicate columns; for IC50: BMMs, M-CSF + 100 ng/mL sRANKL, 5 days, TRAP staining, read-out: OC IC50 (anti-osteoclastogenesis activity)
Method in brief: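 IC50 came from a nonlinear curve fit of percent inhibition, computed from TRAP-positive osteoclast counts against unstimulated and untreated wells. Cells were murine BMMs with M-CSF (10 ng/mL), exposed 5 days to 100 ng/mL sRANKL and nine compound levels, re-dosed every 2 days, in triplicate.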

RAW264.7 cells = test: In vitro cytotoxicity assay (MTT); assay type: cell-based, mouse; conditions: RAW264.7, MTT
Method: MTT assay was used to determine cell viability. RAW264.7 cells in the logarithmic growth phase were cultured in 96-well plates with 6 × 10^3 cells in each well and incubated for 24 h. The surviving cells were then determined by MTT method. […] Cell growth inhibition ratio was calculated as follows: Cellgrowthinhibitionratio%=ODvehicle−ODtreaed/ODvehicle×100%
Cell cytotoxicity CC50 value were conducted by using Nonlinear regression (curve fit) analytic procedure in GraphPad Prism 8.

sRANKL = molecular target: T1, sRANKL; test: Surface plasmon resonance (SPR) assay; assay type: binding; conditions: immobilized sRANKL, 25 °C
Method: A ProteOn XPR36TM SPR instrument (BioRad Hercules, CA) was used for carrying out SPR assays. sRANKL protein in PBS buffer, pH 7.4, was diluted to 20 nM in 10 mM sodium acetate buffer, pH 5.5 and immobilized in parallelflow channels of a the EDAC/Sulfo-NHS activated surface of a GLH biosensor chip (Bio-Rad) with an amine coupling kit (Bio-Rad). The surface was blocked with 1 M ethanolamine. The final immobilization level for sRANKL was approximately 14,000 RU. A blank immobilization channel in the same GLH biosensor chip was also activated with EDAC/Sulfo-NHS and blocked with 1 M ethanolamine to use as a reference.
Biosensor binding experiments were conducted in filtered and degassed running buffer (PBS containing 0.005% Tween-20, pH 7.4) at 25 °C. Compounds was dissolved in 100% DMSO in appropriate different series concentrations of stock solutions. Before detecting, compounds were diluted in six or five concentrations with running buffer and ensured that the content of DMSO contained in each detected concentration was consistent. Compounds in different concentrations were injected simultaneously at a flow rate at […] for 180 s and 120 s for the association phase, followed by 180 s for the disassociation. Following the compound injection, the chip surface was regenerated with 40 s pulses of 0.85% H3PO4 and running buffer.
ProtedOn Manager 2.0. was used for data analysis. Each set of sensorgrams was globally analyzed using the 1:1 Langmuir binding model to obtain the kinetic rate constants (Kon and Koff). Global kinetic rate constants (ka and kd) were derived for each reaction, and the equilibrium dissociation constant, KD, was calculated using the equation KD = kd/ka.

[2] = molecular target: T2, recombinant RANK (mouse extracellular …); test: pull-down; 120 ug GST-sRANKL on the resin in PBS with 1% BSA, room temperature; compounds (50 uM) or 0.8% DMSO control for 30 min, then 25 ug RANK for 20 min; SDS-PAGE, Coomassie blue; conditions: both partners purified
[3] = molecular target: the molecule itself; test: cross-linking; cross-link assay of sRANKL with S3-15; methods not shown

Kd (sRANKL) | binding result [2] | Molecule | inhibition of osteoclastogenesis, dose-response (fig. S2a) ([1]; conc. 0.0023464 μM) | inhibition of osteoclastogenesis, dose-response (fig. S2a) ([1]; conc. 0.00774313 μM) | inhibition of osteoclastogenesis, dose-response (fig. S2a) ([1]; conc. 0.0255523 μM) | inhibition of osteoclastogenesis, dose-response (fig. S2a) ([1]; conc. 0.0843226 μM) | inhibition of osteoclastogenesis, dose-response (fig. S2a) ([1]; conc. 0.278265 μM) | inhibition of osteoclastogenesis, dose-response (fig. S2a) ([1]; conc. 0.918274 μM) | inhibition of osteoclastogenesis, dose-response (fig. S2a) ([1]; conc. 3.0303 μM) | inhibition of osteoclastogenesis, dose-response (fig. S2a) ([1]; conc. 10 μM) | inhibition of osteoclastogenesis, dose-response (fig. S2a) ([1]; conc. 33 μM) | CC50 (RAW264.7 cells) | IC50 [1] | stoichiometry N [3]
211 µM | – | CC(=O)C(=NNc1ccccc1C(=O)O)C(=O)Nc1nc(C)c(C(=O)O)s1 [S3-01] | 5.532 (2×) and 2.66 | 13.1915 and 15.7447 and 16.7021 | 9.043 and 12.234 and 13.5106 | 12.234 and 16.7021 and 15.1064 | 42.234 and 40.3192 and 42.5532 | 61.7021 and 57.234 and 62.3404 | 74.1489 and 77.0213 and 79.8936 | 99.3617 (2×) and 99.0426 | 100 | 62.3 µM | – | –
38 µM | – | CCOC(=O)c1sc(NC(=O)C(=NNc2ccc(C(=O)O)cc2)C(C)=O)nc1C [S3-02] | 0.3058 and -2.446 and -0.3058 | 12.2324 and 9.48 and 14.6789 | 19.5719 and 20.7951 and 20.4893 | 19.5719 and 21.7125 and 20.1835 | 22.9358 and 29.3578 (2×) | 32.1101 and 33.9449 and 35.474 | 59.0214 and 60.5505 and 61.1621 | 81.6514 and 80.7339 and 87.7676 | 100 | 41.9 µM | 1.24 µM and > 1 µM | –
33.7 µM | – | CCOC(=O)c1sc(NC(=O)C(=NNc2cccc(C(=O)O)c2)C(C)=O)nc1C [S3-03] | 4.313 and 4.012 and -1.404 | 4.012 and 1.304 and -0.5015 | 11.5346 and 24.4734 and 19.659 | 33.8014 and 30.1906 and 37.1113 | 47.6429 and 50.0502 and 47.342 | 51.8556 and 56.9709 and 59.3781 | 77.4323 and 79.5386 and 69.007 | 99.0973 and 98.7964 (2×) | 100 | 33.9 µM | 0.36 µM | –
33.7 µM | – | CC(=O)C(=NNc1ccccc1C(=O)O)C(=O)Nc1nccs1 [S3-09] | -0.7659 (2×) and 2.516 | 0.2188 and -0.1094 and 1.86 | 6.455 and 3.501 and 2.845 | 10.3939 and 2.845 and 7.44 | 45.186 and 26.8053 and 32.3851 | 57.9869 (2×) and 48.7965 | 69.1466 and 68.8184 and 61.9256 | 80.6346 and 77.0241 and 79.6499 | 100 | > 100 µM | – | –
– | binds | GST tag recombinant rat sRANKL (GST-sRANKL) (ligand, UniProt Q9ESE2 160-318, looked up, also called soluble RANKL; source: E. coli BL21 (DE3), purified (glutathione sepharose, Superdex 200 Increase)) KPEAQPFAHLTINAADIPSGSHKVSLSSWYHDRGWAKISNMTLSNGKLRVNQDGFYYLYANICFRHHETSGSVPADYLQLMVYVVKTSIKIPSSHNLMKGGSTKNWSGNSEFHFYSINVGGFFKLRAGEEISVQVSNPSLLDPDQDATYFGAFKVQDID | – | – | – | – | – | – | – | – | – | – | – | –
– | – | label-free rat sRANKL (wild type) (ligand, UniProt Q9ESE2 160-318, looked up, RANKL, rat, soluble form sRANKL; also called WT sRANKL; soluble RANKL; source: E. coli BL21 (DE3), purified (Ni-NTA, released by Ulp1, HiLoad Superdex 200); not shown: His6, N-terminal, cleaved; SUMO, N-terminal, cleaved) KPEAQPFAHLTINAADIPSGSHKVSLSSWYHDRGWAKISNMTLSNGKLRVNQDGFYYLYANICFRHHETSGSVPADYLQLMVYVVKTSIKIPSSHNLMKGGSTKNWSGNSEFHFYSINVGGFFKLRAGEEISVQVSNPSLLDPDQDATYFGAFKVQDID | – | – | – | – | – | – | – | – | – | – | – | 3

Reference: article PMC9468151, “Identification of a binding site on soluble RANKL that can be targeted to inhibit soluble RANK-RANKL interactions and treat osteoporosis” (Nature Communications, 2022)
